The source of these data is patent publication US20090156609A1, “TREATMENT OF POST-TRAUMATIC STRESS DISORDER WITH TETRAHYDROINDOLONE ARYLPIPERZAINE COMPOUNDS” (priority 2007, published 2009).

The test system of series [1] is mice. In words: Spontaneous Activity model (locomotor activity). The class given is in vivo. The following applies: models unwanted side effects. From the text:
Ambulatory and non-ambulatory activity can be used to test spontaneous and drug-induced motor activity. The test can be used to profile the potential for a drug to induce hyperactivity or sedation.
In this model, Kinder Scientific photobeam activity monitors are used to record the ambulatory and non-ambulatory motor activity. The monitors track the photobeam breaks made by the animal that are used to calculate the number of ambulatory and fine (non-ambulatory) motor movements. A drug-induced increase in activity can indicate the potential for an adverse event such as hyperactivity. A drug-induced decrease in response can indicate the potential for an adverse event such as sedation. Doses at which no significant change in activity are recorded, and more preferably at which no change in activity are recorded, can be selected for further evaluation.
(§1) The present compounds were tested in the conditioned avoidance response (CAR) model and in the Spontaneous Activity model described above.

The subject of series [2] is Male C57 mice. Briefly: PCP-induced disruption of prepulse inhibition (PPI) of the startle response. Format: in vivo. The settings on record: for minimal effective dose: Mus musculus, 20 minutes prior to PCP 5 mg/kg IP, read-out: Effective Dose, Prepulse Inhibition Testing; for minimum effective dose, Prepulse Inhibition (PPI): reversal of PCP-induced disruption, route not given. From the text: The phencyclidine (PCP)-induced disruption of pre-pulse inhibition (PPI) has been used to predict efficacy in cognitive impairment and other disorders. In this test, a weaker auditory prestimulus (prepulse) inhibits the reaction of an test organism to a subsequent strong startle stimulus (pulse). Normal PPI functioning in mammals is critical in filtering out irrelevant sensory information, an inhibitory process that is affected in patients with PTSD. A reduction of the cognitive/attention impairment produced in the PPI model can be used as an efficacy measure for compound candidate selection.
For testing of PPI, male C57 mice can be assigned to five dose groups of eight animals per group, and vehicle or test compound can then be administered orally (PO) or subcutaneously (SC) 20 minutes prior to intraperitoneal (IP) administration of vehicle or PCP (5 mg/kg). Ten minutes following PCP administration, the mice are placed into Hamilton-Kinder startle chambers and evaluation of pre-pulse inhibition procedure is performed. Following a five-minute acclimatization period with background white noise (65 decibels), mice were exposed to five different trial types. Trials were presented […] in a quasi-random order, with randomized 5 to 25 second inter-trial intervals. Trials were: stimulus only trial (120 decibel white noise, 50 ms stimulus); two different prepulse+pulse trials in which a 20 ms 5 decibel, or 10 decibel stimuli above a 65 decibel background preceded the 120 decibel pulse by 120 ms; a 10 decibel prepulse without a 120 decibel pulse; and a no stimulus trial, in which only the background noise was presented.
Compounds which are observed to reduce and/or reverse PCP-induced impairment can be selected as candidates for further evaluation. Such reduction is also indicative of memory enhancement, which is also a positive indicator for further development.
Male C57 mice were assigned to five dose groups of eight animals per group, and vehicle or a test compound was administered orally or subcutaneously 20 minutes prior to intraperitoneal administration of vehicle or PCP (5 mg/kg). Ten minutes following PCP administration, the mice were placed into Kinder Scientific startle chambers (Kinder Scientific, Poway, Calif.) and pre-pulse inhibition was evaluated. Following a five-minute acclimatization period with background white noise (65 dB), mice were exposed to five different trial types. Trials were presented in a quasi-random order, with randomized 5 to 25 second inter-trial intervals. The five different trials (presented 10 times each were): stimulus only trial (120 dB white noise, 50 ms stimulus); two different prepulse+pulse trials in which a 20 ms 5 dB or 10 dB stimulus above a 65 dB background preceded the 120 dB pulse by 120 ms; a 10 dB prepulse without a 120 dB pulse; and a no stimulus trial, in which only the background noise was presented.

Series [3] deals with C-57 mice. In words: Conditioned avoidance response (CAR) model. The class given is in vivo. The following applies: models unwanted side effects.
From the text: The Condition Avoidance Responding (CAR, active avoidance) model is a measure of cognitive and attention impairment. It evaluates the disruption of avoidance (increased latency) without disruption of escape (extrapyramidal motor function).
The training of C-57 mice consists of 20 trials with variable inter-trial intervals (trained to 80% Avoidance Criteria). After a one-minute acclimation period, the house light and an acoustic 90 decibel tone (conditioned stimuli) are presented. A response (crossing to dark compartment) within 5 seconds ends the trial and trial is recorded as avoidance response (CAR). […] To avoid shock, animals learn to move from the lighted side of the − chamber to the dark side when the cue is presented (avoidance) or moved when the shock is administered (escape). Compounds that disrupt cognition in the CAR model can be excluded from candidate consideration.
as §1

In series [4] the test system is patients. The settings on record: placebo 37 percent, cited from earlier work.

Read-outs that look alike come from different tables or passages of the source.

For the compound `O=C1CCCc2c1ccn2CCCCN1CCN(c2ccc(F)cc2)CC1` [Compound B, 1-{4-[4-(4-Fluorophenyl)piperazin-1-yl]butyl}-1,5,6,7-tetrahydroindol-4-one], the “minimum effective dose, Locomotor Activity” value in series [1] was 3 mg/kg. Also, the minimal effective dose in series [2] (sc, subcutaneous) was 1 mg/kg. Further, in series [2], the “minimum effective dose, Prepulse Inhibition (PPI)” value amounted to 1 mg/kg. Besides, the “minimum effective dose, Conditioned Avoidance Response” value in series [3] is on record as greater than 3 mg/kg.

Regarding `O=C1CCCc2c1ccn2CCCCN1CCN(c2ccc(Br)cc2)CC1` [Compound C, 1-{4-[4-(4-Bromophenyl)piperazin-1-yl]butyl}-1,5,6,7-tetrahydroindol-4-one], the “minimum effective dose, Locomotor Activity” value in series [1] is greater than 10 mg/kg. In series [2] (sc, subcutaneous), the minimal effective dose turned out to be 3 mg/kg. For the same compound, the “minimum effective dose, Prepulse Inhibition (PPI)” value in series [2] is 3 mg/kg. Besides, in series [3], the “minimum effective dose, Conditioned Avoidance Response” value is recorded as greater than 10 mg/kg.

Take `O=C1CCCc2c1ccn2CCCCN1CCN(c2cccc(C(F)(F)F)c2)CC1` [Compound D, 1-{4-[4-(3-Trifluoromethylphenyl)piperazin-1-yl]butyl}-1,5,6,7-tetrahydroindol-4-one]: the “minimum effective dose, Locomotor Activity” value in series [1] stood at 3 mg/kg. The minimal effective dose worked out at 0.3 mg/kg in series [2] (sc, subcutaneous) and 1 mg/kg in series [2] (oral). In addition, in series [2], the “minimum effective dose, Prepulse Inhibition (PPI)” value is given as 0.3 mg/kg. Also, in series [3], the “minimum effective dose, Conditioned Avoidance Response” value turned out to be 3 mg/kg.

Consider `O=C1CCCc2c1ccn2CCN1CCN(c2cccc(C(F)(F)F)c2)CC1` [Compound E, 1-{2-[4-(3-Trifluoromethylphenyl)piperazin-1-yl]ethyl}-1,5,6,7-tetrahydroindol-4-one], for which the “minimum effective dose, Locomotor Activity” value in series [1] is given as greater than 10 mg/kg. Further, the “minimum effective dose, Prepulse Inhibition (PPI)” value in series [2] amounted to 3 mg/kg. Moreover, in series [3], the “minimum effective dose, Conditioned Avoidance Response” value was greater than 10 mg/kg.

Take `O=C1CCCc2c1ccn2CCCN1CCN(c2cccc(Cl)c2)CC1` [Compound F, 1-{3-[4-(3-Chlorophenyl)piperazin-1-yl]propyl}-1,5,6,7-tetrahydroindol-4-one]: the “minimum effective dose, Locomotor Activity” value in series [1] was greater than 3 mg/kg. Also, in series [2], the “minimum effective dose, Prepulse Inhibition (PPI)” value is given as 3 mg/kg. Moreover, the “minimum effective dose, Conditioned Avoidance Response” value in series [3] was greater than 10 mg/kg.

`O=C1CCCc2c1ccn2CCCN1CCN(c2cccc(C(F)(F)F)c2)CC1` [Compound G, 1-{3-[4-(3-Trifluoromethylphenyl)piperazin-1-yl]propyl}-1,5,6,7-tetrahydroindol-4-one]: the “minimum effective dose, Locomotor Activity” value in series [1] is recorded as greater than 10 mg/kg. The “minimum effective dose, Prepulse Inhibition (PPI)” value in series [2] is on record as 3 mg/kg. Moreover, the “minimum effective dose, Conditioned Avoidance Response” value in series [3] is on record as greater than 10 mg/kg.

As to `O=C1CCCc2c1ccn2CCCCN1CCN(c2ccc(Cl)c(Cl)c2)CC1` [Compound H, 1-{4-[4-(3,4-dichlorophenyl)piperazin-1-yl]butyl}-1,5,6,7-tetrahydroindol-4-one], the minimal effective dose turned out to be 1 mg/kg in series [2] (sc, subcutaneous) and 6 mg/kg in series [2] (oral).

Consider `O=C1CCCc2c1ccn2CCCCN1CCN(c2ccc(F)c(Cl)c2)CC1` [Compound I, 1-{4-[4-(3-Chloro-4-fluorophenyl)piperazin-1-yl]butyl}-1,5,6,7-tetrahydroindol-4-one], for which, in series [2] (sc, subcutaneous), the minimal effective dose came out at 1 mg/kg.

In the case of `O=C1CCCc2c1ccn2CCCCN1CCN(c2ccc(Cl)cc2Cl)CC1` [Compound J, 1-{4-[4-(2,4-Dichlorophenyl)piperazin-1-yl]butyl}-1,5,6,7-tetrahydroindol-4-one], in series [2] (sc, subcutaneous), the minimal effective dose came out at 10 mg/kg.

Turning to `O=C1CCCc2c1ccn2CCCN1CCN(c2ccc(Cl)c(Cl)c2)CC1` [Compound K, 1-{3-[4-(3,4-Dichlorophenyl)piperazin-1-yl]propyl}-1,5,6,7-tetrahydroindol-4-one], the minimal effective dose in series [2] (sc, subcutaneous) stood at 10 mg/kg.

As to `Fc1ccc([C@@H]2CCNC[C@H]2COc2ccc3c(c2)OCO3)cc1` [paroxetine, Paroxetine], the figures for the “patients who responded positively” value in series [4] (20 mg paroxetine) and in series [4] (40 mg paroxetine) were 62% and 54%, respectively.
